Experiments:
Type in all cases: cell-based
mTOR = molecular target: T1, mTOR (Homo sapiens, UniProt P42345); test: Assay d): mTOR cellular potency (phospho-AKT Ser473 in MDA-MB-468 cells); details: MDA-MB-468 cells, phospho-AKT Ser473, 2 h; Table 2; read-out: Assay d) mTOR Cell IC50
T1 construct: phosphorylation of the Akt protein at Ser473 (AKT lies downstream of PI3Kα in the signal transduction pathway) in the MDA-MB-468 cells; endogenous in cells; host or cells: MDA-MB-468 cells (ATCC HTB 132)
Experimental: This assay was used to measure mTOR inhibition in cells. The aim of the phospho-AKT cell based mechanism of action assay using the Acumen Explorer is to identify inhibitors of either PI3Kα or mTOR-Rictor (Rapamycin insensitive companion of mTOR). This is measured by any decrease in the phosphorylation of the Akt protein at Ser473 (AKT lies downstream of PI3Kα in the signal transduction pathway) in the MDA-MB-468 cells following treatment with compound.
MDA-MB-468 cells (human breast adenocarcinoma #ATCC HTB 132) were seeded at 1500 cells/well in 40 μl of DMEM containing 10% FBS and 1% glutamine into Greiner 384 well black flat-bottomed plates. Cell plates were incubated for 18 h in a 37° C. incubator before dosing with compounds of Formula (I) in 100% DMSO using acoustic dispensing. Compounds were dosed in a 12 point concentration range into a randomised plate map. Control wells were generated either by dosing of 100% DMSO (max signal) or addition of a reference compound (a PI3K-βinhibitor) that completely eliminated the pAKT signal (min control). Plates were incubated at 37° C. for 2 h; cells were then fixed by the addition of 10 μl of a 3.7% formaldehyde solution. After 30 minutes the plates were washed with PBS using a Tecan PW384 plate washer. Wells were blocked and cells permeabilised with the addition of 40 μl of PBS containing 0.5% Tween20 and 1% Marvel™ (dried milk powder) and incubated for 60 minutes at r.t. The plates were washed with PBS containing 0.5% (v/v) Tween20 and 20 μl rabbit anti-phospho AKT Ser473 (Cell Signalling Technologies, #3787) in same PBS-Tween+1% Marvel™ was added and incubated overnight at 4° C.
Plates were washed 3 times with PBS+0.05% Tween 20 using a Tecan PW384. 20 μl of secondary antibody Alexa Fluor 488 anti-Rabbit (Molecular Probes, #A11008) diluted in PBS+0.05% Tween20 containing 1% Marvel™ was added to each well and incubated for 1 h at r.t. Plates were washed three times as before then 20 μl PBS added to each well and plates sealed with a black plate sealer.
The plates were read on an Acumen plate reader as soon as possible, measuring green fluorescence after excitation with 488 nm laser. Using this system IC50 values were generated and quality of plates was determined by control wells. Reference compounds were run each time to monitor assay performance.

ATM kinase = molecular target: T2, ATM kinase (Homo sapiens, UniProt Q13315); test: Assay a): ATM cellular potency (pATM Ser1981 in irradiated HT29 cells); details: HT29 cells, X-ray irradiation, pATM Ser1981; Table 2; read-out: Assay a) ATM Cell IC50
T2 construct: endogenous in cells; host or cells: HT29 cells (ECACC #85061109)
T2 sequence (Q13315 whole entry): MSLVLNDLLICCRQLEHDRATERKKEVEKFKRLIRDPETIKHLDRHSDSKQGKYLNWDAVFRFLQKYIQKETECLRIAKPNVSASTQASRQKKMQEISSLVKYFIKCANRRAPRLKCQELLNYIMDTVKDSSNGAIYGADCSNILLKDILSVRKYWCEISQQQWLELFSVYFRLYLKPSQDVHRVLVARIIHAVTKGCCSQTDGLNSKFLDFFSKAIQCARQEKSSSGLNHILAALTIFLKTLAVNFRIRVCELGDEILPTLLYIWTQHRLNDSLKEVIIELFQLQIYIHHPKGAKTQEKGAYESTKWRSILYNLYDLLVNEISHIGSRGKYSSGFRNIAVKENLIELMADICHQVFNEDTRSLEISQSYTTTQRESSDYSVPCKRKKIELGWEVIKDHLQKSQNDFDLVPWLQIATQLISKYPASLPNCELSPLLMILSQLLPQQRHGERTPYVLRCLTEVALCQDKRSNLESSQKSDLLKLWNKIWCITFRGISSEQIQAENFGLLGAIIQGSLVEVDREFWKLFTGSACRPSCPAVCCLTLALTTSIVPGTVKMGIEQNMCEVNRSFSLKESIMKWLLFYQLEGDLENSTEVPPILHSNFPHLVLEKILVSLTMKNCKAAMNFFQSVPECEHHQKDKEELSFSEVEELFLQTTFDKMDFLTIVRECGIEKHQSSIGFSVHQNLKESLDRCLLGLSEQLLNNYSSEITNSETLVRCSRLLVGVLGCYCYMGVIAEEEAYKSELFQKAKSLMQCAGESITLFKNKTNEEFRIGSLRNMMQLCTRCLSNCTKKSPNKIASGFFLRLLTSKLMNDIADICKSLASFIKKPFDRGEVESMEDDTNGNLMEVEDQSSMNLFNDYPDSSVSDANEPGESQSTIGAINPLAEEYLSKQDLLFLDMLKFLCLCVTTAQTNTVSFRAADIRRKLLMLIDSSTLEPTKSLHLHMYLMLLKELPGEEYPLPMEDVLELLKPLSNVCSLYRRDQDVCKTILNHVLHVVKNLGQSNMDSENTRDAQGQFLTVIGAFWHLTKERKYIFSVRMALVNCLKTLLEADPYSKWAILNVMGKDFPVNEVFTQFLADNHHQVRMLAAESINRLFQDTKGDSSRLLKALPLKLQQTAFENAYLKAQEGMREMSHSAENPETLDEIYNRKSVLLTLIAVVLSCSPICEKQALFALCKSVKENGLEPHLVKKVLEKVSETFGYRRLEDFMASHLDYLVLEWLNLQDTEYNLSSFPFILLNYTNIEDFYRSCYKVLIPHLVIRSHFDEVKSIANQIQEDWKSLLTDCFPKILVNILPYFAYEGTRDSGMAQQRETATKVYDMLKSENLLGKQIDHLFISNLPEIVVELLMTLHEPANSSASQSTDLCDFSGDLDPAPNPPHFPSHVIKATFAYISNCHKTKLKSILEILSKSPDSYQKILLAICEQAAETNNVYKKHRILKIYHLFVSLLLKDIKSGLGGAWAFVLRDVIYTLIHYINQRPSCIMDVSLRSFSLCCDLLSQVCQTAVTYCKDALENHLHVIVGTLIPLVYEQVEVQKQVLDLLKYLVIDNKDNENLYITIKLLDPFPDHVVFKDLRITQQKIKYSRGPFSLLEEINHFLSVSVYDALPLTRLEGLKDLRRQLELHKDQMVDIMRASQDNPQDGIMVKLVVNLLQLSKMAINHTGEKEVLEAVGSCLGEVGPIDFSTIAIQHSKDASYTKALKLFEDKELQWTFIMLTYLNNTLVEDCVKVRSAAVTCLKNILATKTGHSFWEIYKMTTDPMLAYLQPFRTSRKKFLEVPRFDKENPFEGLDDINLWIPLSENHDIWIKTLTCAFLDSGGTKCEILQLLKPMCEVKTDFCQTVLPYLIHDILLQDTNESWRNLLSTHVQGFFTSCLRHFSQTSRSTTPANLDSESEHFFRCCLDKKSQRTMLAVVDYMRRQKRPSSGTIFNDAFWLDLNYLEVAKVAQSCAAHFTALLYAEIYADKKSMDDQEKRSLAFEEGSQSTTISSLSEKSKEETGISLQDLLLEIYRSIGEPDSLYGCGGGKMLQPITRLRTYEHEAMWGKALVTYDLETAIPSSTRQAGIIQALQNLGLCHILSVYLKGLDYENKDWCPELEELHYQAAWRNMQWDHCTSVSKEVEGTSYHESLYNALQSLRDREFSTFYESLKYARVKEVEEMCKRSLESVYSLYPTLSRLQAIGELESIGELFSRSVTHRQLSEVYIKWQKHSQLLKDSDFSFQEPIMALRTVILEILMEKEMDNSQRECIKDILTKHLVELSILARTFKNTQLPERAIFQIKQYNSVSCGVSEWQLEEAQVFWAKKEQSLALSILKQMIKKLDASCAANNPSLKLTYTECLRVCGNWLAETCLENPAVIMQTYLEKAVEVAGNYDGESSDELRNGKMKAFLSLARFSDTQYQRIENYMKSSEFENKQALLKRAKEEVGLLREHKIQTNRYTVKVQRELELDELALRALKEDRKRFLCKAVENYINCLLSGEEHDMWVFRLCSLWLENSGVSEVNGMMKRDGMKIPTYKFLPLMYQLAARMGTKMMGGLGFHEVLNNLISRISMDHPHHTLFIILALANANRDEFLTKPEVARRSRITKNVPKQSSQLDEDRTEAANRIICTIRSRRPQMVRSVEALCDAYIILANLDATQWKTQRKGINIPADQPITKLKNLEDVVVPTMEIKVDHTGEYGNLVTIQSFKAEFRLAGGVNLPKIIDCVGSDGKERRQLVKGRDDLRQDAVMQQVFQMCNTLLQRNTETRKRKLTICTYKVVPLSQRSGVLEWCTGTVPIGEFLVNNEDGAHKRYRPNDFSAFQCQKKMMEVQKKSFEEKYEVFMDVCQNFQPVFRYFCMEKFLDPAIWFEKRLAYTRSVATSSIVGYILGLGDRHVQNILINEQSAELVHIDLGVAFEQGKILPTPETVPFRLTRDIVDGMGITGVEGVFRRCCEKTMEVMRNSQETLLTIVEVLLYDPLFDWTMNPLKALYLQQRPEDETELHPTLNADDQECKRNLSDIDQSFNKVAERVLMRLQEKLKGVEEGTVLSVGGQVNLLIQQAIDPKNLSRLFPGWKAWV
Experimental: Most ATM molecules in the cell are rapidly phosphorylated on this site after doses of radiation as low as 0.5 Gy, and binding of a phosphospecific antibody is detectable after the introduction of only a few DNA double-strand breaks in the cell.
The rationale of the p ATM assay is to identify inhibitors of ATM in cells. HT29 cells are incubated with test compounds for 1 hr prior to X-ray-irradiation. 1 h later the cells are fixed and stained for p ATM (Ser1981). The fluorescence is read on the arrayscan imaging platform.
The following morning compounds of Formula (I) in 100% DMSO were added to assay plates by acoustic dispensing. After 1 h incubation at 37° C. and 5% CO2, plates (up to 6 at a time) were irradiated using the X-RAD 320 instrument (PXi) with equivalent to ˜600cGy. Plates were returned to the incubator for a further 1 h. […] Then 20 μl of 0.1% Triton X100 in PBS was added and incubated for 20 minutes at r.t., to permeabalise cells. Then the plates were washed once with […] PBS, using a Biotek EL405 plate washer.
After 1 h incubation at r.t., the plates were washed three times with 50 μl/well PBS, using a Biotek EL405 plate washer, and plates were sealed and kept in PBS at 4° C. until read. Plates were read using an ArrayScan VTI instrument, using an XF53 filter with 10× objective.

ATR kinase = molecular target: T3, ATR kinase (Homo sapiens, UniProt Q13535); test: Assay b): ATR cellular potency (pChk1 Ser345 in HT29 cells after 4NQO); details: HT29 cells, 4NQO, pChk1 Ser345; Table 2; read-out: Assay b) ATR Cell IC50
T3 construct: endogenous in cells; host or cells: HT29 cells (ECACC #85061109)
Experimental: ATR is a PI 3-kinase-related kinase which phosphorylates multiple substrates on serine or threonine residues in response to DNA damage during or replication blocks. Chk1, a downstream protein kinase of ATR, plays a key role in DNA damage checkpoint control. Activation of Chk1 involves phosphorylation of Ser317 and Ser345 (the latter regarded as the preferential target for phosphorylation/activation by ATR).
The following morning compound of Formula (I) in 100% DMSO were added to assay plates by acoustic dispensing. After 1 h incubation at 37° C. and 5% CO2, 40 nl of 3 mM 4NQO in 100% DMSO was added to all wells by acoustic dispensing, except minimum control wells which were left untreated with 4NQO to generate a null response control. Plates were returned to the incubator for a further 1 h. […] Then 20 μl of 0.1% Triton X100 in PBS was added and incubated for 10 minutes at r.t., to permeabalise cells. Then the plates were washed once with 50 μl/well PBS, using a Biotek EL405 plate washer.
After 2 h incubation at r.t., the plates were washed three times with 50 μl/well PBS, using a Biotek EL405 plate washer, and plates were then sealed with black plate seals until read. Plates were read using an ArrayScan VTI instrument, using an XF53 filter with 10× objective.

| SMILES | IC50 (mTOR) | IC50 (ATM kinase) | IC50 (ATR kinase) |
| --- | --- | --- | --- |
| CO[C@H]1CC[C@@H](n2c(=O)n(C)c3cnc4ccc(-c5ccc(OCCCN(C)C)cc5)cc4c32)CC1 [Example 25, 8-[4-[3-(dimethylamino)propoxy]phenyl]-1-(cis-4-methoxycyclohexyl)-3-methyl-imidazo[4,5-c]quinolin-2-one] | 879 nM | 0.089 nM | 21000 nM |
| CO[C@H]1C[C@H](n2c(=O)n(C)c3cnc4ccc(-c5ccc(OCCCN6CCCC6)cc5)cc4c32)C1 [Example 42, 1-(trans-3-methoxycyclobutyl)-3-methyl-8-[4-(3-pyrrolidin-1-ylpropoxy)phenyl]imidazo[4,5-c]quinolin-2-one] | 2170 nM | 0.689 nM | > 30000 nM |
| CO[C@H]1C[C@@H](n2c(=O)n(C)c3cnc4ccc(-c5ccc(OCCCN6CCCCC6)cc5)cc4c32)C1 [Example 43, 1-(cis-3-methoxycyclobutyl)-3-methyl-8-[4-[3-(1-piperidyl)propoxy]phenyl]imidazo[4,5-c]quinolin-2-one] | 3630 nM | 0.254 nM | > 30000 nM |
| CN(C)CCCOc1ccc(-c2ccc3ncc4c(c3c2)n(C2CCOCC2)c(=O)n4C)cc1 [Example 44, 8-[4-[3-(dimethylamino)propoxy]phenyl]-3-methyl-1-tetrahydropyran-4-yl-imidazo[4,5-c]quinolin-2-one] | 6990 nM | 0.364 nM | > 21700 nM |
| CN(C)CCCOc1ccc(-c2cc3c(cc2F)ncc2c3n(C3CCOCC3)c(=O)n2C)cc1 [Example 45, 8-[4-[3-(Dimethylamino)propoxy]phenyl]-7-fluoro-3-methyl-1-tetrahydropyran-4-yl-imidazo[4,5-c]quinolin-2-one] | 8650 nM | 3.95 nM | 20000 nM |
| CN(C)CCOc1ccc(-c2ccc3ncc4c(c3c2)n([C@@H]2CCCOC2)c(=O)n4C)cc1 [Example 48, 8-[4-[2-(dimethylamino)ethoxy]phenyl]-3-methyl-1-[(3R)-tetrahydropyran-3-yl]imidazo[4,5-c]quinolin-2-one] | 1780 nM | 24.7 nM | > 26800 nM |
| CO[C@H]1C[C@@H](n2c(=O)n(C)c3cnc4ccc(-c5ccc(OCCN6CCCC6)cc5)cc4c32)C1 [Example 49, 1-(3-(cis)methoxycyclobutyl)-3-methyl-8-[4-(2-pyrrolidin-1-ylethoxy)phenyl]imidazo[4,5-c]quinolin-2-one] | ≥ 30000 nM | 36.1 nM | > 30000 nM |
| Cn1c(=O)n([C@@H]2CCCOC2)c2c3cc(-c4ccc(OCCN5CCCC5)cc4)ccc3ncc21 [Example 50, 3-methyl-8-[4-(2-pyrrolidin-1-ylethoxy)phenyl]-1-[(3R)-tetrahydropyran-3-yl]imidazo[4,5-c]quinolin-2-one] | ≥ 30000 nM | 13.4 nM | > 25500 nM |
| Cn1c(=O)n([C@H]2CCCOC2)c2c3cc(-c4ccc(OCCN5CCCC5)cc4)ccc3ncc21 [Example 51, 3-methyl-8-[4-(2-pyrrolidin-1-ylethoxy)phenyl]-1-[(3S)-tetrahydropyran-3-yl]imidazo[4,5-c]quinolin-2-one] | 1760 nM | 10.2 nM | > 30000 nM |
| CO[C@H]1CC[C@H](n2c(=O)n(C)c3cnc4ccc(-c5ccc(OCCN(C)C)cc5)cc4c32)C1 [Example 52, 8-[4-[2-(dimethylamino)ethoxy]phenyl]-1-[(1S,3S)-3-methoxycyclopentyl]-3-methyl-imidazo[4,5-c]quinolin-2-one] | 5630 nM | 3.57 nM | 21900 nM |
| CN(C)CCOc1ccc(-c2ccc3ncc4c(c3c2)n(C2CCC2)c(=O)n4C)cc1 [Example 53, 1-cyclobutyl-8-[4-[2-(dimethylamino)ethoxy]phenyl]-3-methyl-imidazo[4,5-c]quinolin-2-one] | 10000 nM | 9.38 nM | > 30000 nM |
| CN(C)CCOc1ccc(-c2ccc3ncc4c(c3c2)n(C2CCOCC2)c(=O)n4C)cc1 [Example 54, 8-[4-[2-(dimethylamino)ethoxy]phenyl]-3-methyl-1-tetrahydropyran-4-yl-imidazo[4,5-c]quinolin-2-one] | 7730 nM | 11.1 nM | > 24700 nM |
| CO[C@H]1C[C@@H](n2c(=O)n(C)c3cnc4ccc(-c5ccc(OCCN(C)C)cc5)cc4c32)C1 [Example 55, 8-[4-[2-(dimethylamino)ethoxy]phenyl]-1-(3-(cis)methoxycyclobutyl)-3-methyl-imidazo[4,5-c]quinolin-2-one] | 4440 nM | 11.3 nM | > 30000 nM |
| CN(C)CCOc1ccc(-c2cc3c(cc2F)ncc2c3n(C3CCOCC3)c(=O)n2C)cc1 [Example 56, 8-[4-[2-(Dimethylamino)ethoxy]phenyl]-7-fluoro-3-methyl-1-tetrahydropyran-4-yl-imidazo[4,5-c]quinolin-2-one] | 29200 nM | 53.1 nM | 9850 nM |

Source: patent US20180318287A1, “Imidazo[4,5-c]quinolin-2-one Compounds and Their Use in Treating Cancer” (ASTRAZENECA AB, priority 2015, published 2018)
